# Assay results taken from ChEMBL document CHEMBL5608113, “Targeting of CAF-induced therapy resistance in CRC organoid-stroma co-cultures” (2024).
# How the values were obtained:
# Assay type in all cases: functional, Homo sapiens
# Conditions in all cases: Homo sapiens, read-out: Cell Viability; for viability at 10 µM: Concentration 10 uM; for viability at 1 µM: Concentration 1 uM
# Colon cancer organoid [1] = experiment: Targeting of F14 CAF-induced therapy resistance in O14 CRC organoid-stroma co-culture. Cell viability is reported with Gefitinib.
# Colon cancer organoid [2] = experiment: Targeting of F14 CAF-induced therapy resistance in O23 CRC organoid-stroma co-culture. Cell viability is reported without Gefitinib.
# Colon cancer organoid [3] = experiment: Targeting of F14 CAF-induced therapy resistance in O23 CRC organoid-stroma co-culture. Cell viability is reported with SN-38.
# Colon cancer organoid [4] = experiment: Targeting of F14 CAF-induced therapy resistance in O14 CRC organoid-stroma co-culture. Cell viability is reported without Gefitinib.
# Colon cancer organoid [5] = experiment: Targeting of F14 CAF-induced therapy resistance in O23 CRC organoid-stroma co-culture. Cell viability is reported with Gefitinib.
SMILES,viability at 10 µM (Colon cancer organoid [1]),viability at 10 µM (Colon cancer organoid [2]),viability at 10 µM (Colon cancer organoid [3]),viability at 10 µM (Colon cancer organoid [4]),viability at 10 µM (Colon cancer organoid [5]),viability at 1 µM (Colon cancer organoid [1]),viability at 1 µM (Colon cancer organoid [2]),viability at 1 µM (Colon cancer organoid [3]),viability at 1 µM (Colon cancer organoid [4]),viability at 1 µM (Colon cancer organoid [5])
Cc1c(NC(=O)c2ccc(C(C)(C)C)cc2)cccc1-c1cn(C)c(=O)c(Nc2ccc(C(=O)N3CCOCC3)cc2)n1,23.8%,56.1%,56.9%,82.5%,54%,,,,,
COc1cc(Nc2nccc(-c3cnn4nc(OC)ccc34)n2)cc(C(F)(F)F)c1,3.12%,53.3%,23.6%,3.97%,19.5%,,,,,
O=C(O)CNC(=O)c1c(O)c2ccccc2n(Cc2ccccc2)c1=O,80.4%,167%,95.1%,103%,67.5%,,,,,
Cn1c(=O)[nH]c2cc(N3C(=O)c4cccc5c(CCCO)ccc(c45)C3=O)ccc21,42.4%,132%,69.9%,92.6%,52.8%,,,,,
CC1(C)C(N)=Nc2cc(OCCCN3Cc4ccc(OCCc5cn(CC(=O)N6CCC(CCN7CCCC7)CC6)nn5)cc4C3)c(OCC3CC3)cc21,68.9%,11.8%,7.1%,111%,9.03%,,,,,
CC1(C)C(N)=Nc2cc(OCCCCN3Cc4ccc(OCc5cn(CC(=O)N6CCC(CCN7CCCC7)CC6)nn5)cc4C3)c(OCC3CC3)cc21,45.4%,86.3%,78.3%,107%,44%,,,,,
CC(C)(O)[C@H](F)CN1Cc2cc(NC(=O)c3cnn4cccnc34)c(N3CCOCC3)cc2C1=O,23.3%,85.8%,51.5%,129%,38.7%,,,,,
COc1ccccc1-c1cc(N2CCN(C(=O)OC(C)(C)C)CC2)c(N)nn1,53.4%,49.4%,35.8%,101%,37.8%,,,,,
CN(C(=O)c1cnn2cccnc12)c1cc2c(cc1N1CCOCC1)C(=O)N(C[C@@H](F)C(C)(C)O)C2,38.6%,92.3%,61.8%,139%,39.2%,,,,,
c1ccc(C2CCN(c3cnc4c(N5CCOCC5)nccn34)CC2)cc1,78.2%,207%,108%,81.3%,136%,,,,,
CCOc1ccc(S(=O)(=O)Nc2ccc(Cl)cc2C#Cc2cnc(C(=O)O)cc2OC)c2ncccc12,42.8%,95.3%,77.6%,102%,46.2%,,,,,
Cc1cc(CN)cc(C)c1-c1ncn(C)c1-c1ccnc2cc(F)ccc12,63.2%,122%,86.8%,90.5%,53.8%,,,,,
CC1=CC(C)=[N+]2C1=C(CCCCc1cn(CC(=O)N3CCc4nc(NC(=O)[C@H]5CCN(C#N)C5)sc4C3)nn1)c1c(C)cc(C)n1[B-]2(F)F,31.6%,101%,52.6%,115%,36.4%,,,,,
COc1cc(OC)cc(-c2noc(N3CCN(C)C4(CCN(c5ccccc5)CC4)C3)n2)c1,46.8%,104%,81.3%,114%,65.9%,,,,,
N#CN1CC[C@H](C(=O)Nc2nc3c(s2)CN(C(=O)CN=[N+]=[N-])CC3)C1 [8RK64],33.4%,108%,40.9%,105%,43.1%,,,,,
CN(C)[C@@H]1CCN(c2cc(-c3ccccc3)nc3ccnn23)C1 [(R)-ZINC-3573],30.9%,130%,70.6%,68.2%,61.7%,,,,,
CN(C)[C@H]1CCN(c2cc(-c3ccccc3)nc3ccnn23)C1 [(S)-ZINC-3573],33.4%,98.9%,49.3%,68.9%,55.6%,,,,,
Cn1cncc1[C@@](O)(COc1ccc(C#N)cc1-c1ccc(OC(F)(F)F)cc1)c1ccc(C#N)cc1 [A-108],47.8%,131%,112%,108%,69.3%,,,,,
CCC(=N\O)/C(C)=C/c1ccc(F)c(C)c1 [A-226],62.5%,97.1%,93.1%,119%,49.8%,,,,,

SMILES,viability at 10 µM (Colon cancer organoid [1]),viability at 10 µM (Colon cancer organoid [2]),viability at 10 µM (Colon cancer organoid [3]),viability at 10 µM (Colon cancer organoid [4]),viability at 10 µM (Colon cancer organoid [5]),viability at 1 µM (Colon cancer organoid [1]),viability at 1 µM (Colon cancer organoid [2]),viability at 1 µM (Colon cancer organoid [3]),viability at 1 µM (Colon cancer organoid [4]),viability at 1 µM (Colon cancer organoid [5])
CNC(=O)Nc1ccc2c(c1)CC[C@@]21OC(=O)N(CC(=O)N(Cc2ccc(F)cc2)[C@@H](C)C(F)(F)F)C1=O [A-485],,,,,,23.9%,60.4%,51%,65.4%,34.6%
CNC(=O)Nc1ccc2c(c1)[C@@]1(CC2)OC(=O)N(CC(=O)N(Cc2ccc(F)cc2)[C@@H](C)C(F)(F)F)C1=O [A-486],,,,,,50%,92.2%,69.7%,90.8%,47.9%
CCCCN(CCCC)C(=O)CN1C[C@@H](c2cc(OC)c3c(c2)OCO3)[C@H](C(=O)O)[C@H]1CC(C)(C)CCC [A-545],61.5%,142%,88.5%,83.6%,47%,,,,,
CSc1cccnc1N1CCN(Cc2nc3ccccc3[nH]2)CC1 [A-769],36.4%,111%,103%,73.4%,59%,,,,,
CCCOc1ccc([C@H]2[C@H](C(=O)O)[C@@H](c3ccc4c(c3)OCO4)CN2CC(=O)Nc2c(CC)cccc2CC)cc1 [A-192621],,,,,,27.4%,112%,50%,117%,48.1%
CN(C)CC#Cc1ccc(OCCCc2sc(N3CCc4cccc(C(=O)Nc5nc6ccccc6s5)c4C3)nc2C(=O)O)c(F)c1 [A-1155463],21.1%,5.72%,0.449%,61.6%,2.66%,,,,,
CO[C@H]1CC[C@H](CNc2ccc(S(=O)(=O)NC(=O)c3ccc(N4CCN(CC5=C(c6ccc(Cl)cc6)CC(C)(C)CC5)CC4)cc3Oc3cnc4[nH]ccc4c3)cc2[N+](=O)[O-])CC1 [A-1211212],25%,83.3%,32.3%,40.4%,30.6%,,,,,
COc1ccc2c(c1)O[C@H](c1ccc(OC)c(OC)c1)C[C@@H]2NC(=O)C1(c2ccc3c(c2)OC(F)(F)O3)CC1 [A-1596584],48.4%,111%,59.1%,74.5%,48.5%,,,,,
COc1ccc2c(c1)O[C@@H](c1ccc(OC)c(OC)c1)C[C@H]2NC(=O)C1(c2ccc3c(c2)OC(F)(F)O3)CC1 [A-1596586],44.6%,129%,51.3%,121%,42.2%,,,,,
CCCOc1ccc([C@@H]2[C@@H](C(=O)O)[C@H](c3ccc4c(c3)OCO4)CN2CC(=O)Nc2c(CC)cccc2CC)cc1 [A-1806262],,,,,,47.8%,85%,54.5%,79.9%,38.9%
CCNC(=O)c1cc2c(-c3cc(C(C)(C)O)ccc3Oc3c(C)cc(F)cc3C)cn(C)c(=O)c2[nH]1 [ABBV-744],14.3%,135%,75.1%,78.2%,82%,,,,,
COc1cc(Nc2ncc3c(n2)-c2ccc(Cl)cc2C(c2c(F)cccc2OC)=NC3)ccc1C(=O)O [ALISERTIB],7.3%,32.9%,46.6%,16.2%,13.7%,,,,,
CC(C)[C@H](C(=O)Nc1ccc(C(=O)NO)cc1)c1ccccc1 [AR-42],23.6%,210%,131%,34.5%,263%,,,,,
Cc1cnc(-c2cc(Cl)ccc2F)cc1-n1c(=O)n(CC(N)=O)c2ccccc21 [Al11],31.3%,120%,66.2%,104%,94.6%,,,,,
Cc1ccccc1Oc1cc(-n2c(=O)cc(C(F)(F)F)[nH]c2=O)c2ccccc2c1Cl [BAY-069],40.6%,116%,51.3%,167%,56.6%,,,,,
Cn1c(-c2csc(C3CCN(CC4=NC5N=CC=CC5N4)CC3)n2)nc2ccccc21 (stereo not given) [BAY-070],44.6%,136%,105%,90.7%,73.4%,,,,,
NS(=O)(=O)c1cc(NC(=O)C2(c3ccccc3Cl)CC2)ccc1Oc1cccc(Cl)c1 [BAY-207],34.8%,78.6%,61%,86.8%,42.5%,,,,,
CNCc1ccccc1-c1csc([C@@H](C)Nc2nc(C)nc3cc(OC)c(OC)cc23)c1 [BAY-293],16.6%,69.8%,50.2%,64%,35%,,,,,
CNCc1ccccc1-c1csc([C@H](C)Nc2nc(C)nc3cc(OC)c(OC)cc23)c1 [BAY-294],,,,,,66.5%,137%,89%,102%,46.4%
